From patent US20110034426A1, “Method of Preventing Renal Disease and Treating Symptoms Thereof” (WISCONSIN ALUMNI RESEARCH FOUNDATION, priority 2009, published 2011)
“Also recorded” adds a separate entry of the source.

Tests used:
[1] = tested on: MRL/MpJ-Fas^lpr/J mice; test: Proteinuria in MRL/lpr mouse model of systemic lupus erythematosus / lupus nephritis; assay type: in vivo
Method: (§1) Mice. […] Water was given ad libitum.
(§2) Proteinuria measurements. Proteinuria measurements were performed by putting gentle pressure on the bladder for spot urine analysis on a clean surface with a semi-quantitative dipstick (Combistix, Bayer). Mice were determined to have proteinuria when urinary protein output was 100 mg/dL or more. Urine was collected by placing the animals in metabolic cages and performing two-24 hr collections. Total protein was measured using a Bradford assay. (MM Bradford, Analytical Biochemistry 72: 248-254, 1976).

[2] = tested on: MRL/MpJ-Fas^lpr/J mice; test: Splenomegaly (spleen mass and histology) in MRL/lpr mice; assay type: in vivo
From the text: as §1

[3] = tested on: MRL/MpJ-Fas^lpr/J mice; details: 300 ng per day 1,25(OH)2D3 in diet, earlier thesis work (Kim 2009); cited from earlier work
[4] = tested on: ⅚ths Nephrectomy Rat Model; test: ⅚ths Nephrectomy Rat Model (uremic rat); assay type: in vivo, Sprague-Dawley rats; details: uremic rats
From the text: ⅚ths Nephrectomy Rat Model. Disease Induction. Weanling, male Sprague-Dawley rats were obtained from Harlan (Madison, Wis.). Following a 10-13 day acclimation period, the animals had two-thirds of one kidney removed. After a week, the other entire kidney was removed. The animals were then switched from a chow diet to a purified rodent diet (Suda et al., Purified Rodent Diet-Diet 11) containing 0.6% Ca and 0.9% phosphorus and fat soluble vitamins A, D, E and K. Water and diet were provided ad libitum.
Animal Husbandry. Animals were housed in suspended, plastic shoe-box style cages with corn cob bedding (prior to surgery) or in stainless steel, wire-bottom cages (approximately one week after surgery). The animal rooms were maintained at a temperature of 68 to 72° F. and a relative humidity of 25 to 75%. The holding rooms were set to provide 12 hours of light per day.
Treatment Groups. Approximately four weeks after the second surgery, animals were assigned to treatment groups (14-15 animals/group) so that each group had the same average PTH level.
Dose Preparation (Vehicle Formulation). The negative control material was prepared by volumetrically measuring ethanol (5%) and Neobee oil, mixing and then placing in storage at 2 to 8° C.
Dose Preparation (2MD Formulation). 2MD formulations (DP001, Sigma Aldrich Fine Chemicals, Madison, Wis.) were prepared by first determining the concentration of an ethanol stock solution using UV spectrophotometry (extinction coefficient=42,000; max=252 nm). The solutions were then volumetrically added to Neobee oil so that there was no more than 5% ethanol in the final solution. If necessary, additional ethanol was added to bring the final ethanol amount to 5%. The solution was mixed and stored at 2 to 8° C.
Dose Administration Method. Both vehicle and 2MD were administered orally to the back of the tongue at 0.5 ml/kg body weight once daily for 8 weeks.
Serum Parathyroid Hormone (PTH) Levels. By “serum PTH levels” we mean the amount of PTH released by the parathyroid gland. PTH is the most important regulator of the body's calcium and phosphorus levels, and is controlled by the level of calcium in the blood. Low blood calcium levels cause increased PTH to be released, while high blood calcium levels inhibit PTH release. Normal values are 10-55 picograms per milliliter (pg/mL). Four weeks after surgery and 4 and 8 weeks after treatment initiation, blood was collected from the tail artery and the concentration of bioactive serum PTH was measured using the rat BioActive Intact PTH ELISA Kit from Immutopics, Inc. (San Clemente, Calif.).
Serum Calcium Analysis. Four weeks following surgery and 4 and 8 weeks after treatment started, blood was collected from the tail artery of each experimental animal. The blood was allowed to coagulate at room temperature and then centrifuged at 3000×g for 15 minutes. The serum was transferred to a polypropylene tube and stored frozen at −20° C. The level of calcium was determined by diluting the serum into 0.1% lanthum chloride and measuring the absorbance on an atomic absorption spectrophotometer (Perkin Elmer Model 3110, Shelton, Conn.).
Phosphorus Assay. Four weeks after surgery and 8 weeks after treatment started, blood was collected from the tail artery of each experimental animal. The blood was allowed to coagulate at room temperature and then centrifuged at 3000×g for 15 minutes. The serum was transferred to a polypropylene tube and stored frozen at −20° C. The level of phosphorus was determined using a clinical analyzer (Pentra 400, Horiba ABX Diagnostics—France; UV method using phosphomolybdate).
Creatinine Assay. Measuring serum creatinine levels is a useful and inexpensive method of evaluating renal dysfunction. Creatinine is a non-protein waste product of […] metabolism by skeletal muscle tissue. Creatinine production is continuous and is proportional to muscle mass. […]

[5] = Serum calcium in treated MRL/lpr mice
Method: Mice. All mice used in this study were female MRL/MpJ-Fas^lpr/J mice either purchased directly or originally purchased from The Jackson Laboratory and bred in house. All mice involved in each study were age matched to the week of birth. All animal handling was performed according to protocol A1205 approved by the University of Wisconsin—Madison Institutional Animal Care and Use Committee. From weaning, female mice were placed on purified diet containing 0.47% calcium without 2MD until treatment initiation. The purified powder diet was prepared in agar form and administered 3 times a week. 2MD was administered through diet based on 5 g daily diet consumption per mouse. Water was given ad libitum. Blood was taken via retro-orbital bleeding method under isoflurane anesthetic. Serum was isolated from blood samples, frozen and subsequently analyzed with a benchtop clinical chemistry analyzer (Pentra 400, Horiba ABX).

[6] = Growth, body weight and clinical signs in treated MRL/lpr mice; assay type: in vivo
From the text: as §1

[7] = tested on: MRL/MpJ-Fas^lpr/J mice; test: Kidney and heart histology in MRL/lpr mice; assay type: in vivo
Method: as §1
Histology. Half of a kidney was preserved in cold zinc formalin fixative, embedded in paraffin, and sectioned 4 μm thick. Hematoxylin and eosin (H&E) and Masson-Goldner's trichrome were used to study histological differences between kidney samples. Von Kossa staining was performed on whole heart sections (processed as described above) to determine heart calcification. Sectioning and staining was performed by the University of Wisconsin—Madison McArdle Histology Laboratory. Micrographs in the figures were taken by an Olympus BH-2 microscope and Nikon Coolpix 990 digital camera.

[8] = tested on: NOD mice; test: NOD Mouse Model of Type I Diabetic Nephropathy; assay type: in vivo; details: 2MD in the diet
Method: as §2
Disease Induction. NOD mice (breeder pairs) were obtained from JAX laboratories (Bar Harbor, Me.). Weanling mice were placed on chow diet (5K52 Lab Diets) or purified diet (Suda et al., Purified Rodent Diet-Diet 11) and allowed to spontaneously develop diabetes (two consecutive measurements of plasma glucose >[…]). Water and diet were provided ad libitum.
Animal Husbandry. Animals were housed in autoclaved, plastic shoe-box style cages with corn cob bedding in groups of 2-4 animals/cage. Once mice were confirmed diabetic, the cages were changed daily. The animal rooms were maintained at a temperature of 68 to 72° F. and a relative humidity of 25 to 75%. […]
Treatment Groups. […] Once animals were determined to be diabetic, animals were assigned to treatment groups (6-12/group) so that each group would have the same average plasma glucose level at enrollment. […]

[9] = daily oral 2MD for 8 weeks vs vehicle
[10] = daily oral 2MD vs vehicle, six weeks after treatment initiation

C=C1/C(=C\C=C2/CCC[C@]3(C)[C@@H]([C@H](C)CCCC(C)(C)O)CC[C@@H]23)C[C@@H](O)C[C@@H]1O [1,25(OH)2D3, 1α,25-dihydroxyvitamin D3, reference compound]
prevention of proteinuria ([1]; 300 ng 1,25(OH)2D3 compared with 5 ng 2MD): equally effective
spleen mass reduction ([2]; 150 ng per day 1,25(OH)2D3): comparable to that achieved with 5 ng 2MD treatment
spleen histology, compared with 5 ng 2MD ([2]; 300 ng 1,25(OH)2D3): better retention of normal spleen histology
spleen mass normalized to body weight ([2]; 300 ng 1,25(OH)2D3): statistically significant reduction
spleen mass, compared with 5 ng 2MD ([2]; 300 ng 1,25(OH)2D3): greater reduction in spleen mass
proteinuria [3]: completely prevents proteinuria

C=C1[C@H](O)CC(=C/C=C2\CCC[C@@]3(C)C2CCC3[C@@H](C)CCCC(C)(C)O)C[C@H]1O (stereo partly drawn) [2MD, 2-methylene-19-nor-(20S)-1α,25-(OH)2D3]
all markers of kidney failure ([4]; 2MD treatment): improved
serum creatinine [4, 9]: lower levels
serum phosphorus [4, 9]: lower levels
urinary protein excretion [4, 10]: lower levels
urinary volume [4, 10]: lower levels
bone mineral density (total body BMD) ([4]; daily oral 2MD): improved bone mineral densities; also recorded: increased bone mineral density
overall survival ([4]; daily oral 2MD): increased overall survival
serum PTH levels ([4]; daily oral 2MD): decreased PTH levels; also recorded: lower PTH levels
total serum calcium ([4]; dose levels of 2MD giving the positive effects): do not significantly raise serum calcium
serum calcium levels ([5]; 1 ng 2MD, MRL/lpr mice, throughout the study): within the physiologically normal range
serum calcium levels ([5]; 5 ng 2MD per mouse per day, MRL/lpr mice): without dramatically increasing
serum calcium, highest measured point ([5]; 5 ng 2MD, MRL/lpr mice): 12.4 mg/dL
serum calcium at study termination ([5]; 5 ng 2MD, MRL/lpr mice, week 19): 10.9 mg/dL
serum calcium levels ([5]; 2MD treatment (0.5, 1, 5 ng), week 10 to 19, MRL/lpr mice): mildly elevated
hypercalcemia and associated effects including weight loss, compared with 150 ng 1,25(OH)2D3 ([6]; 1 ng 2MD): significantly less
clinical symptoms of hypercalcemia ([6]; 5 ng 2MD): symptoms of hypercalcemia including unkempt fur and nervousness
growth / weight loss ([6]; 5 ng 2MD): adversely affected; also recorded: Weight loss is most severe
growth ([6]; 0.5 and 1 ng 2MD): slight impact on growth; also recorded: very mild
lethargy or morbidity ([6]; any 2MD dose group (0.5, 1, 5 ng)): no lethargy or morbidity was observed
perivascular infiltration ([7]; 5 ng 2MD vs control): slight decrease; also recorded: noticeably decreased
tubulointerstitial infiltration of leukocytes ([7]; 5 ng 2MD vs control): noticeable decrease; also recorded: substantially less
glomerular damage (sclerosis, fibrosis, basement membrane thickening, mesangial proliferation) ([7]; 5 ng 2MD vs control, kidney histology): prevented
interstitial fibrosis (fibrotic staining) ([7]; 5 ng 2MD vs control, trichrome stain): significantly less; also recorded: the extent and frequency was much less
calcification in kidneys and hearts ([7]; 2MD treated MRL/lpr mice): lack of evidence of calcification; also recorded: absence of calcification artifacts
reduction in proteinuria incidence ([1]; 1 ng 2MD per mouse per day in diet, MRL/lpr mice): > 60%
mean time of onset of proteinuria ([1]; 1 ng 2MD, MRL/lpr mice): delayed mean time of onset of proteinuria
proteinuria (terminal incidence) ([1]; 5 ng 2MD/mouse/day in diet, MRL/lpr mice, treatment week 10 to 19): completely preventing proteinuria; also recorded: completely prevented; also recorded: sufficient to prevent proteinuria
overall urine volume output [8]: reduced; also recorded: marked improvement
total urinary protein excretion [8]: reduced; also recorded: marked improvement
spleen histology (white pulp structure) ([2]; 5 ng 2MD): helps retain the sheath-like structure; also recorded: retains some of the sheath structure
splenomegaly / spleen weight (also normalized to body weight) ([2]; 5 ng 2MD vs 0 ng control, p<0.05): significantly reduced splenomegaly; also recorded: significantly decreased
